Patent US8829007B2 (priority 2009, dated 2014)
pEC50, pIC50: −log10 of the molar value. Like-named read-outs stand apart in the source and are kept apart here.

Legend:
[1] = system: A/PR/8/34 influenza virus; assay: microbe, parasite or virus in culture; format: cell-based; conditions: for EC50: HA(−) 30 hr, A/PR/8, bDNA, read-out: Cell Influenza HA(−) 30 hr A/PR/8 bDNA:bDNA EC50 uM(Mean (All))
influenza [2] = assay: In vivo prophylaxis study (FIG. 1), survival of infected mice; design: species or system Balb/c mice; conditions: 100 mg/kg oral gavage, first dose 2 hours prior to infection, twice daily for 5 days, survival monitored 21 days, P<0.0001 vs vehicle
[3] = system: influenza A virus (A/PR/8/34); assay: microbe, parasite or virus in culture; format: cell-based; conditions: for IC50: MDCK cells, A/PR/8/34, ATP readout, read-out: Cell Flu, MDCK protection, ATP (All: IC50: uM)(Mean (All))
influenza [4] = assay: Influenza Therapeutic Mouse Model (Table 6); format: in vivo, mice; conditions: dosing @ 48 hours post infection with 30 mg/kg BID X 10 days
influenza [5] = assay: In vivo treatment study (FIG. 2), survival of infected mice; design: species or system Balb/c mice; conditions: 200 mg/kg oral gavage from 24 hours post infection, twice daily for 10 days, survival monitored 21 days, P<0.0001 vs vehicle
[6] = Influenza A virus, PR/8, MDCK, MDCK cells infected with A/PR/8/34, replication of influenza virus (viral RNA, bDNA), class symbols, read-out: EC50 (mean all)
[7] = Influenza A virus, PR/8, MDCK, MDCK cells infected with A/PR/8/34, survival of infected cells, class symbols, read-out: IC50 (mean all)
[8] = Influenza A virus, PR/8, mean all, replication of A/PR/8/34 influenza virus (bDNA assay), read-out: EC50
[9] = Influenza A virus, PR/8, MDCK, mean all, survival of A/PR/8/34 infected MDCK cells (CPE assay), read-out: IC50
[10] = Influenza A virus, PR/8, mean all, A/PR/8/34 influenza virus replication, bDNA, read-out: EC50
[11] = Influenza A virus, PR/8, MDCK, mean all, A/PR/8/34 infected MDCK cells, cell protection (CPE), read-out: IC50
[12] = Influenza A virus, PR/8, 30 h, mean all
[13] = Influenza A virus, PR/8, MDCK, mean all
[14] = mean all, A/PR/8/34 influenza virus in MDCK cells, bDNA assay, read-out: EC50

## COC(=O)N[C@H]1CCC[C@@H](Nc2nc(-c3c[nH]c4ncc(Cl)cc34)ncc2F)C1 (relative stereo) [Compound 514, Methyl-cis-3-[[2-(5-chloro-1H-pyrrolo[2,3-b]pyridin-3-yl)-5-fluoro-pyrimidin-4-yl]amino]cyclohexylcarbamate]
[1]; [6]
  pEC50: > 5.30
Influenza [2]
  survival: complete survival
[3]; [7]
  pIC50: > 5.30

## C[C@H]1NC(=O)O[C@]12CCC[C@H](Nc1nc(-c3c[nH]c4ncc(F)cc34)ncc1F)C2 (single isomer, unassigned) [Compound 967]
[1]; [8]
  pEC50: > 5.30
Influenza [4]
  Percent Survival: 75%
  Percent Weight Loss (Day 8): 30.9%
[3]; [9]
  pIC50: > 5.30

## OC[C@H](O)CN1CCCC(Nc2nc(-c3c[nH]c4ncc(Cl)cc34)ncc2F)C1 (stereo partly drawn) [Compound 588]
[1]; [6]
  pEC50: > 5.30
Influenza [5]
  survival: complete survival
[3]; [7]
  pIC50: > 5.30

## O=C(N[C@@H]1CCC[C@H](Nc2nc(-c3c[nH]c4ncc(F)cc34)ncc2F)C1)N1CCOCC1 [Compound 706, N-[(1R,3S)-3-[[5-fluoro-2-(5-fluoro-1H-pyrrolo[2,3-b]pyridin-3-yl)pyrimidin-4-yl]amino]cyclohexyl]morpholine-4-carboxamide]
[1]; Influenza A virus, PR/8, MDCK, mean all, bDNA viral RNA in MDCK cells infected with A/PR/8/34, read-out: EC50
  pEC50: > 5.30
Influenza [4]
  Percent Survival: 75%
  Percent Weight Loss (Day 8): 27.0%
[3]; Influenza A virus, PR/8, MDCK, mean all, MDCK cells infected with A/PR/8/34, cell protection (CPE), read-out: IC50
  pIC50: > 5.30

## C[C@@]1(O)CCC[C@H](Nc2nc(-c3c[nH]c4ncc(Cl)cc34)ncc2F)[C@H]1O [Compound 860]
[1]; mean all, A/PR/8/34 influenza virus replication, bDNA, read-out: EC50
  pEC50: > 5.30
[3]; read-out: IC50
  pIC50: > 5.30

## N#CC1(C(=O)N[C@@H]2CCC[C@H](Nc3nc(-c4c[nH]c5ncc(F)cc45)ncc3F)C2)CC1 [Compound 871]
[1]; [10]
  pEC50: > 5.30
[3]; [11]
  pIC50: > 5.30

## N=C(N)N1CCC[C@H](Nc2nc(-c3c[nH]c4ncc(Cl)cc34)ncc2F)C1 [Compound 881]
[1]; [10]
  pEC50: < 5.48
[3]; [11]
  pIC50: < 5.00

## CS(=O)(=O)C[C@@]1(O)CCC[C@H](Nc2nc(-c3c[nH]c4ncc(Cl)cc34)ncc2F)C1 [Compound 886]
[1]; mean all, replication of A/PR/8/34 influenza virus (bDNA assay), read-out: EC50
  pEC50: > 5.30
[3]; read-out: IC50
  pIC50: > 5.30

## O=C(N[C@@H]1CCC[C@H](Nc2nc(-c3c[nH]c4ncc(F)cc34)ncc2F)C1)N1CCCC1 [Compound 895, N-((1R,3S)-3-(5-fluoro-2-(5-fluoro-1H-pyrrolo[2,3-b]pyridin-3-yl)-pyrimidin-4-ylamino)cyclohexyl)pyrrolidine-1-carboxamide]
[1]; Influenza A virus, PR/8, exemplary values in text, replication of A/PR/8/34 influenza virus, read-out: EC50
  pEC50: 9.00
[1]; [8]
  pEC50: > 5.30
Influenza [4]
  Percent Survival: 100%
  Percent Weight Loss (Day 8): 12.8%
[3]; Influenza A virus, PR/8, MDCK, exemplary values in text, survival of A/PR/8/34 infected cells, read-out: IC50
  pIC50: 9.10
[3]; [9]
  pIC50: > 5.30

## O=C1CCCN1[C@@H]1CCC[C@H](Nc2nc(-c3c[nH]c4ncc(Cl)cc34)ncc2F)C1 [Compound 956]
[1]; [8]
  pEC50: > 5.30
[3]; [9]
  pIC50: > 5.30

## CN1CCN([C@@H]2CCCC(Nc3nc(-c4c[nH]c5ncc(Cl)cc45)ncc3F)C2)C1=O (stereo partly drawn) [Compound 958]
[1]; [8]
  pEC50: > 5.30
[3]; [9]
  pIC50: > 5.30

## O=C1CC2(CCC[C@H](Nc3nc(-c4c[nH]c5ncc(Cl)cc45)ncc3F)C2)CN1 (stereo partly drawn) [Compound 969, (7S)-7-(2-(5-chloro-1H-pyrrolo[2,3-b]pyridin-3-yl)-5-fluoropyrimidin-4-ylamino)-2-azaspiro[4.5]decan-3-one]
[1]; [8]
  pEC50: > 5.30
[3]; [9]
  pIC50: > 5.30

## CN1C[C@@]2(CCC[C@H](Nc3nc(-c4c[nH]c5ncc(Cl)cc45)ncc3F)C2)OC1=O [Compound 971, (5S,7S)-7-(2-(5-chloro-1H-pyrrolo[2,3-b]pyridin-3-yl)-5-fluoropyrimidin-4-ylamino)-3-methyl-1-oxa-3-azaspiro[4.5]decan-2-one]
[1]; [8]
  pEC50: > 5.30
[3]; [9]
  pIC50: > 5.30

## N#CC[C@]1(O)CCC[C@H](Nc2nc(-c3c[nH]c4ncc(F)cc34)ncc2F)C1 [Compound 979, 2-((1S,3S)-3-(5-fluoro-2-(5-fluoro-1H-pyrrolo[2,3-b]pyridin-3-yl)pyrimidin-4-ylamino)-1-hydroxycyclohexyl)ethanenitrile]
[1]; [12]
  EC50: < 5 µM
[3]; [13]
  IC50: < 5 µM

## O[C@H]1[C@H](O)CCCC[C@@H]1Nc1nc(-c2c[nH]c3ncc(F)cc23)ncc1F [Compound 984]
[1]; [12]
  EC50: < 5 µM
[3]; [13]
  IC50: < 5 µM

## O=C(O)[C@H]1C2CCC(CC2)[C@@H]1Nc1nc(-c2c[nH]c3ncc(F)cc23)ncc1F [Compound 1070, (2S,3S)-3-((2-(5-fluoro-1H-pyrrolo[2,3-b]pyridin-3-yl)-5-fluoropyrimidin-4-yl)amino)bicyclo[2.2.2]octane-2-carboxylic acid]
[1]; [12]
  EC50: < 5 µM
[3]; [13]
  IC50: < 5 µM

## COc1c(F)cnc2[nH]cc(-c3ncc(F)c(N[C@H]4CCC[C@@H](NC(=O)N5CC[C@@H](F)C5)C4)n3)c12 [Compound 1104, (R)-3-fluoro-N-((1R,3S)-3-((5-fluoro-2-(5-fluoro-4-methoxy-1H-pyrrolo[2,3-b]pyridin-3-yl)pyrimidin-4-yl)amino)cyclohexyl)pyrrolidine-1-carboxamide]
[1]; [12]
  EC50: < 5 µM
[3]; [13]
  IC50: < 5 µM

## N=C(N)N[C@@H]1CCC[C@H](Nc2nc(-c3c[nH]c4ncc(F)cc34)ncc2F)C1 [Compound 1143, 1-((1R,3S)-3-(5-fluoro-2-(5-fluoro-1H-pyrrolo[2,3-b]pyridin-3-yl)pyrimidin-4-ylamino)cyclohexyl)guanidine]
[1]; [12]
  EC50: < 5 µM
[3]; [13]
  IC50: < 5 µM

## O=C(O)c1coc(N[C@@H]2CCC[C@H](Nc3nc(-c4c[nH]c5ncc(F)cc45)ncc3F)C2)n1 [Compound 1144, 2-((1R,3S)-3-(5-fluoro-2-(5-fluoro-1H-pyrrolo[2,3-b]pyridin-3-yl)pyrimidin-4-ylamino)cyclohexylamino)oxazole-4-carboxylic acid]
[1]; [12]
  EC50: < 5 µM
[3]; [13]
  IC50: < 5 µM

## O=C(O[C@H]1CCC[C@@H](Nc2nc(-c3c[nH]c4ncc(F)cc34)ncc2F)C1)N1CC[C@H](F)C1 [Compound 1151, (S)-(1S,3R)-3-((5-fluoro-2-(5-fluoro-1H-pyrrolo[2,3-b]pyridin-3-yl)-pyrimidin-4-yl)amino)cyclohexyl 3-fluoropyrrolidine-1-carboxylate]
[1]; [12]
  EC50: < 5 µM
[3]; [13]
  IC50: < 5 µM

## O=C(O)[C@H]1C2CCC(CC2)[C@@H]1Nc1nc(-c2c[nH]c3ncc(Cl)cc23)ncc1F [Compound 1184, (2S,3S)-3-((2-(5-chloro-1H-pyrrolo[2,3-b]pyridin-3-yl)-5-fluoropyrimidin-4-yl)amino)bicyclo[2.2.2]octane-2-carboxylic acid]
[1]; [12]
  EC50: < 5 µM
[3]; [13]
  IC50: < 5 µM

## C[C@H]1C[C@@H](NC(=O)N2CC[C@H](F)C2)C[C@@H](Nc2nc(-c3c[nH]c4ncc(F)cc34)ncc2F)C1 [compound 1067]
[1]; [12]
  EC50: < 5 µM
[3]; [13]
  IC50: < 5 µM

## (1S,3R)—N1-(5-fluoro-2-(5-fluoro-1H-pyrrolo[2,3-b]pyridin-3-yl)pyrimidin-4-yl)-N3-(pyrazin-2-yl)cyclohexane-1,3-diamine [Compound 985]
[1]; mean all
  EC50: < 5 µM
[3]; mean all
  IC50: < 5 µM

## (R)-methyl 2-(3-((2-(5-chloro-1H-pyrrolo[2,3-b]pyridin-3-yl)-5-fluoropyrimidin-4-ylamino)methyl)piperidine-1-carboxamido)ethanoate [Compound 125]
[1]; read-out: EC50 (mean all)
  pEC50: > 5.30
[3]; read-out: IC50 (mean all)
  pIC50: > 5.30

## (R)—N-((1-(3-bromophenylsulfonyl)piperidin-3-yl)methyl)-2-(5-chloro-1H-pyrrolo[2,3-b]pyridin-3-yl)-5-fluoropyrimidin-4-amine [Compound 88]
[1]; read-out: EC50 (mean all)
  pEC50: > 5.30
[3]; read-out: IC50 (mean all)
  pIC50: > 5.30

## (R)—N-cyclopropyl-2-((5-fluoro-2-(1H-pyrrolo[2,3-b]pyridin-3-yl)pyrimidin-4-ylamino)-methyl)piperidine-1-carboxamide [Compound 372]
[1]; [14]
  pEC50: 5.00 to 5.30
[3]; read-out: IC50
  pIC50: 4.70 to 5.30

## (R)—N-tert-butyl-3-((2-(5-chloro-1H-pyrrolo[2,3-b]pyridin-3-yl)-5-fluoropyrimidin-4-ylamino)methyl)piperidine-1-carboxamide [Compound 117]
[1]; read-out: EC50 (mean all)
  pEC50: > 5.30
[3]; read-out: IC50 (mean all)
  pIC50: > 5.30

## N-[cis-2-[[5-fluoro-2-(1H-pyrrolo[2,3-b]pyridin-3-yl)pyrimidin-4-yl]amino]cyclohexyl]methanesulfonamide [Compound 337]
[1]; [14]
  pEC50: > 5.30
[3]; read-out: IC50
  pIC50: 4.70 to 5.30
